This passage reports EC50 results from patent publication US12441730B2, “PRMT5 inhibitors” (Merck Sharp & Dohme LLC, priority 2019, dated 2025).

Where two headings read alike, the source gives them in different places.

For assay [1], the target named is T1, Full-length (FL)-PRMT5-MEP50 enzyme complex (Homo sapiens, UniProt O14744).
T1 construct: Full-length (FL)-PRMT5-MEP50 enzyme complex (recombinant proteins from baculovirus-transfected Sf21 cells: FL-PRMT5; MW=73837 kDa and FL-MEP50; MW=38614); made in house; host or cells: baculovirus-transfected Sf21 cells
Nature of the assay: PRMT5-MEP50 Enzyme Methylation Assay (Version B). In kind it is biochemical. The method, then: PRMT5-MEP50 Enzyme Methylation Assay (Version B)
PRMT5/MEP50 biochemical assay is a direct measurement of the methylation activity of the enzyme complex on a short peptide substrate derived from the N-terminus of H4 histone. Methylation experiment was performed with recombinant protein. The assessment of inhibitory effect (IC50) of small molecules was measured by the effectiveness of the compounds to inhibit this reaction.
In this assay, the potency (IC50) of each compound was determined from a twenty-point (1:2 serial dilution; top compound concentration of 100000 nM) titration curve using the following outlined procedure. To each well of a white ProxiPlus 384 well-plate, 100 nL of compound (1% DMSO in final assay volume of 10 μL) was dispensed, followed by the addition of 8 μL of 1× assay buffer (50 mM Bicine pH 8.0, 1 mM DTT, 0.004% Tween20, 0.01% BSA) containing 0.5 nM of Full-length (FL)-PRMT5-MEP50 enzyme complex (recombinant proteins from baculovirus-transfected Sf21 cells: FL-PRMT5; MW=[…] and FL-MEP50; MW=38614). Plates were sealed and placed in a 37° C. humidified chamber for 30 minutes pre-incubation with compounds. Subsequently, each reaction was initiated by the addition of 2 μL 1× assay buffer containing 75 nM biotinylated H4R3 (Me1) peptide, and 15 μM S-(5′-Adenosyl)-L-Methionine Chloride (SAM). The final reaction in each well of 10 μL consists of 0.5 nM PRMT5-MEP50, 75 nM biotinylated-peptide, and 15 μM SAM. Methylation reactions were allowed to proceed for 150 minutes in a sealed plate at 37° C. Reactions were immediately quenched by the addition of 1 μL of 10% formic acid. Plates were then frozen and shipped to SAMDI™ Tech Inc. to determine the percent conversion from […]. EC50 values were determined by non-linear regression according to models for either sigmoidal (4 parameters) or biphasic (7 parameters) dose-response curves.

Assay [2] concerns symmetric dimethylation of arginine (SDMA) of PRMT5 substrates in MCF-7 cells. Nature of the assay: PRMT5 Cell Target Engagement (TE) Assay. Particulars: 3 days treatment, SDMA high content imaging. In kind it is cell-based. The gist of the method: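 MCF-7 cells treated 3 days at 37 °C with a ten-point 1:3 titration from 10000 nM. Fixed cells immunostained with anti-SDMA and Alexa488 secondary; nuclear fluorescence quantified by high-content imaging versus DMSO wells, with IC50 from a 4-parameter fit.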

Setting [3] is: second value of 7 parameter biphasic fit, read-out: Enzyme Methylation Assay Version B (EC50 2).
Where [4] appears, read: single EC50 = 4 parameter single site sigmoidal fit, EC50 1 = first value of 7 parameter biphasic fit, read-out: Enzyme Methylation Assay Version B (EC50 or EC50 1).

The EC50 is the midpoint of the concentration-response curve.

T1 sequence (O14744 whole entry): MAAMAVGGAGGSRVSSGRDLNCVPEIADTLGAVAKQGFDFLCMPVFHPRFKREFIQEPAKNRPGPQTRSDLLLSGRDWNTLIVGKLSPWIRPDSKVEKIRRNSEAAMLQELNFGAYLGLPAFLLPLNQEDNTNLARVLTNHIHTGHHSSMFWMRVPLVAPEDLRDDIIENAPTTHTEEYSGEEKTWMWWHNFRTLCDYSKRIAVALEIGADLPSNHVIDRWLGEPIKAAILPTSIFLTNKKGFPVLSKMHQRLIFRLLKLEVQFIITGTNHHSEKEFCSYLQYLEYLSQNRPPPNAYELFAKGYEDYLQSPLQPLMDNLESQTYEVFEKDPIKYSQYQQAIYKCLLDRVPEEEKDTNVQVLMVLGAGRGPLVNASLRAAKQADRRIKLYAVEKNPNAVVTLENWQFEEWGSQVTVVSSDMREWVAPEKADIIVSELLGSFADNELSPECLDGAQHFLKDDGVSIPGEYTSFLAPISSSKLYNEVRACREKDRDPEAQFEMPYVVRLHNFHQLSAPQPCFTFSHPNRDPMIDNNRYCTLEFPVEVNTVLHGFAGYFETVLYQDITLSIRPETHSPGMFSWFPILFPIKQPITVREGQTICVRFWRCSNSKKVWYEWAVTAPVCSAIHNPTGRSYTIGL
T1 sequence (Q9BQA1 whole entry partner): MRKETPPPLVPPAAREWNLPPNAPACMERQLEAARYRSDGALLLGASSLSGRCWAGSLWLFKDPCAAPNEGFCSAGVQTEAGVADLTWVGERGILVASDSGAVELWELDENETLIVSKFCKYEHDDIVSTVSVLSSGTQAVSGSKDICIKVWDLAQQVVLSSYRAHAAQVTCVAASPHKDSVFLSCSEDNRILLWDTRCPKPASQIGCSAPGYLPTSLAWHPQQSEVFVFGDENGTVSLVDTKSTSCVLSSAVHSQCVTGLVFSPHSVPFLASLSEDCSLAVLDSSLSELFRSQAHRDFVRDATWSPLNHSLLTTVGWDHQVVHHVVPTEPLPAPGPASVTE

In the case of `CCOc1cc(C(=O)N2C3CCC2COC3)ccc1C(=O)N1CCC2(Cc3ccccc3CN2)C(O)C1` (single isomer, unassigned) [Example 86, A diastereomer of {3-ethoxy-4-[(3′-hydroxy-1,4-dihydro-1′H,2H-spiro[isoquinoline-3,4′-piperidin]-1′-yl)carbonyl]phenyl}(3-oxa-8-azabicyclo[3.2.1]oct-8-yl)methanone], the concentration giving a half-maximal response (EC50) was determined as 28800 nM in assay [1] (setting [3]), 82.2 nM in assay [1] (setting [4]) and 1470 nM in assay [2].

Consider `CCOc1cc(C(=O)N2C3CCC2COC3)ccc1C(=O)N1CCC2(Cc3ccccc3CN2)C(O)C1` (single isomer, unassigned) [Example 87, A diastereomer of {3-ethoxy-4-[(3′-hydroxy-1,4-dihydro-1′H,2H-spiro[isoquinoline-3,4′-piperidin]-1′-yl)carbonyl]phenyl}(3-oxa-8-azabicyclo[3.2.1]oct-8-yl)methanone], for which the EC50 in assay [1] (setting [3]) came out at 671 nM; in assay [1] (setting [4]), 3.54 nM; in assay [2], 9.16 nM.

As for `CCOc1cc(C(=O)N2C3CCC2COC3)ccc1C(=O)N1CCC2(Cc3ccccc3CN2)C(O)C1` (single isomer, unassigned) [Example 88, A diastereomer of {3-ethoxy-4-[(3′-hydroxy-1,4-dihydro-1′H,2H-spiro[isoquinoline-3,4′-piperidin]-1′-yl)carbonyl]phenyl}(3-oxa-8-azabicyclo[3.2.1]oct-8-yl)methanone], the EC50 in assay [1] (setting [4]) stood at 964 nM; in assay [2] (Homo sapiens, MCF7, 72 h) it was 4290 nM.

Turning to `CCOc1cc(C(=O)N2C3CCC2COC3)ccc1C(=O)N1CCC2(Cc3ccccc3CN2)C(O)C1` (single isomer, unassigned) [Example 89, A diastereomer of {3-ethoxy-4-[(3′-hydroxy-1,4-dihydro-1′H,2H-spiro[isoquinoline-3,4′-piperidin]-1′-yl)carbonyl]phenyl}(3-oxa-8-azabicyclo[3.2.1]oct-8-yl)methanone], the figures for the concentration for a half-maximal effect (EC50) in assay [1] (setting [3]), in assay [1] (setting [4]) and in assay [2] were 1980 nM, 4.81 nM and 6.88 nM, respectively.

For `CC(=O)N1CCC(Nc2cc(C(=O)N3CCC4(Cc5ccccc5CN4)C(O)C3)ncn2)CC1` (single isomer, unassigned) [Example 90, A diastereomer of 1-[4-({6-[(3′-hydroxy-1,4-dihydro-1′H,2H-spiro[isoquinoline-3,4′-piperidin]-1′-yl)carbonyl]-4-pyrimidinyl}amino)-1-piperidinyl]ethanone], the values for the concentration for a half-maximal effect (EC50) in assay [1] (setting [4]) and in assay [2] were 206 nM and at least 10000 nM, respectively.

For the compound `CC(=O)N1CCC(Nc2cc(C(=O)N3CCC4(Cc5ccccc5CN4)C(O)C3)ncn2)CC1` (single isomer, unassigned) [Example 91, A diastereomer of 1-[4-({6-[(3′-hydroxy-1,4-dihydro-1′H,2H-spiro[isoquinoline-3,4′-piperidin]-1′-yl)carbonyl]-4-pyrimidinyl}amino)-1-piperidinyl]ethanone], the EC50 was 513 nM in assay [1] (setting [3]), 1.65 nM in assay [1] (setting [4]) and 305 nM in assay [2].

Regarding `CC(=O)N1CCC(Nc2cc(C(=O)N3CCC4(Cc5ccccc5CN4)C(O)C3)ncn2)CC1` (single isomer, unassigned) [Example 92, A diastereomer of 1-[4-({6-[(3′-hydroxy-1,4-dihydro-1′H,2H-spiro[isoquinoline-3,4′-piperidin]-1′-yl)carbonyl]-4-pyrimidinyl}amino)-1-piperidinyl]ethanone], the figures for the EC50 in assay [1] (setting [4]) and in assay [2] were 944 nM and at least 10000 nM, respectively.

Consider `CC(=O)N1CCC(Nc2cc(C(=O)N3CCC4(Cc5ccccc5CN4)C(O)C3)ncn2)CC1` (single isomer, unassigned) [Example 93, A diastereomer of 1-[4-({6-[(3′-hydroxy-1,4-dihydro-1′H,2H-spiro[isoquinoline-3,4′-piperidin]-1′-yl)carbonyl]-4-pyrimidinyl}amino)-1-piperidinyl]ethanone], for which the EC50 in assay [1] (setting [3]) amounted to 1070 nM; in assay [1] (setting [4]), 3.11 nM; in assay [2], 27.3 nM.

Consider `CC(=O)N1CCC(Nc2cc(C(=O)N3CC[C@]4(Cc5ccccc5CN4)[C@H](O)C3)ccn2)C(F)(F)C1` (single isomer, unassigned) [Example 96, 1—((S or R)-3,3-difluoro-4-((4-((3R,3′R)-3′-hydroxy-1,4-dihydro-2H-spiro[isoquinoline-3,4′-piperidine]-1′-carbonyl)pyridin-2-yl)amino)piperidin-1-yl)ethan-1-one], for which the EC50 in assay [1] (setting [3]) stood at 34300 nM; in assay [1] (setting [4]) it was 19.7 nM; in assay [2], 767 nM.

For the compound `CC(=O)N1CCC(Nc2cc(C(=O)N3CC[C@]4(Cc5ccccc5CN4)[C@H](O)C3)ccn2)C(F)(F)C1` (single isomer, unassigned) [Example 97, 1—((S or R)-3,3-difluoro-4-((4-((3R,3′R)-3′-hydroxy-1,4-dihydro-2H-spiro[isoquinoline-3,4′-piperidine]-1′-carbonyl)pyridin-2-yl)amino)piperidin-1-yl)ethan-1-one], the concentration giving a half-maximal response (EC50) in assay [1] (setting [3]) came out at 7410 nM; in assay [1] (setting [4]) it was 4.54 nM; in assay [2], 216 nM.

Turning to `O=C(c1ccc(C(=O)N2C3CCC2COC3)cc1)N1CCC2(Cc3ccccc3CN2)C(O)C1` (single isomer, unassigned) [Example 149, (3′-hydroxy-1,4-dihydro-1′H,2H-spiro[isoquinoline-3,4′-piperidin]-1′ -yl)[4-(3-oxa-8-azabicyclo[3.2.1]oct-8-ylcarbonyl)phenyl]methanone], the EC50 in assay [1] (setting [3]) is at least 100000 nM; in assay [1] (setting [4]) it was 298 nM; in assay [2], 9840 nM.

Regarding `O=C(c1ccc(C(=O)N2C3CCC2COC3)cc1)N1CCC2(Cc3ccccc3CN2)C(O)C1` (single isomer, unassigned) [Example 150, (3′-hydroxy-1,4-dihydro-1′H,2H-spiro[isoquinoline-3,4′-piperidin]-1′-yl)[4-(3-oxa-8-azabicyclo[3.2.1]oct-8-ylcarbonyl)phenyl]methanone], the results for the EC50 in assay [1] (setting [3]), in assay [1] (setting [4]) and in assay [2] were 1840 nM, 5.61 nM and 246 nM, respectively.

In the case of `O=C(c1ccc(C(=O)N2C3CCC2COC3)cc1)N1CCC2(Cc3ccccc3CN2)C(O)C1` (single isomer, unassigned) [Example 151, (3′-hydroxy-1,4-dihydro-1′H,2H-spiro[isoquinoline-3,4′-piperidin]-1′-yl)[4-(3-oxa-8-azabicyclo[3.2.1]oct-8-ylcarbonyl)phenyl]methanone], the EC50 is 882 nM in assay [1] (setting [4]) and 4180 nM in assay [2].

With `O=C(c1ccc(C(=O)N2C3CCC2COC3)cc1)N1CCC2(Cc3ccccc3CN2)C(O)C1` (single isomer, unassigned) [Example 152, (3′-hydroxy-1,4-dihydro-1′H,2H-spiro[isoquinoline-3,4′-piperidin]-1′-yl)[4-(3-oxa-8-azabicyclo[3.2.1]oct-8-ylcarbonyl)phenyl]methanone], the EC50 in assay [1] (setting [3]) was 335 nM; in assay [1] (setting [4]) it was 1.2 nM; in assay [2] it was 27.7 nM.

On to `CC(=O)N1CCC(Nc2cc(C(=O)N3CC[C@]4(Cc5ccccc5CN4)[C@H](O)C3)c(Cl)cn2)CC1` [Example 4, 11-(4-((5-chloro-4-((3R,3’R)-3′-hydroxy-1,4-dihydro-2H-spiro[isoquinoline-3,4′-piperidine]-1′-carbonyl)pyridin-2-yl)amino)piperidin-1-yl)ethan-1-one], for which the 50% effective concentration (EC50) is 1530 nM in assay [1] (setting [3]); 2.63 nM in assay [1] (setting [4]); 55.9 nM in assay [2] (Homo sapiens, MCF7, 72 h).

On to `CC(=O)N1CCC(Nc2cc(C(=O)N3CC[C@]4(Cc5ccccc5CN4)[C@H](O)C3)c(F)cn2)CC1` [Example 5, 1-(4-((5-fluoro-4-((3R,3’R)-3′-hydroxy-1,4-dihydro-2H-spiro[isoquinoline-3,4′-piperidine]-1′-carbonyl)pyridin-2-yl)amino)piperidin-1-yl)ethan-1-one], for which the EC50 came to 1110 nM in assay [1] (setting [3]); 5.18 nM in assay [1] (setting [4]); 38.6 nM in assay [2] (Homo sapiens, MCF7, 72 h).

With `CCOc1cc(C(=O)N2C3CCC2COC3)ccc1C(=O)N1CCC2(CC1)Cc1ccc(Cl)cc1CN2` [Example 52, [4-(7-chloro-1,4-dihydro-1H,2H-spiro[isoquinoline-3,4′-piperidine]-1′-carbonyl)-3-ethoxyphenyl](3-oxa-8-azabicyclo[3.2.l]octan-8-yl)methanone], the EC50 is 2250 nM in assay [1] (setting [3]); 6.71 nM in assay [1] (setting [4]); 87.7 nM in assay [2] (Homo sapiens, MCF7, 72 h).
